Reference: patent publication US20060258581A1, “Methods and composition for derepressions of IAP-inhibited caspase” (priority 2001, published 2006)
Entries after “also recorded” stand apart in the source; their conditions may differ.

What was measured:
full length XIAP = full length XIAP (Homo sapiens, UniProt P98170); assay: Potency of IAP antagonists in vitro (Table VIII; caspase derepression / SMAC competition with full length XIAP)
[1] = tested on: HCT-116 colon cancer cells; assay: HCT-116 colon cancer xenograft in Balb/C nu-/nu- mice; assay type: in vivo; conditions: 30 mg/kg i.p. on days 6, 7 and 8
Description: Additional experiments were performed using a different tumor xenograft model. HCT-116 colon cancer cells (2.5 million) were injected subcutaneously in the flanks of female Balb/C nu-/nu-mice. […] Tumor volume was measured by external calipers at least twice weekly for 19 days (see FIG. 32c). On day 19, the mice were sacrificed and the tumors were excised and weighed.

[2] = tested on: tumor cells pulsed with specific antigen, antigen-specific T cells; assay: Antigen-specific CTL cytotoxicity, 51Cr release; assay type: cell-based; conditions: 10 μM, 4 hours
Description: After 4 hours, ^51Cr release was measured. Data shown in FIG. 39 are expressed as a percentage of total release induced by detergent lysis, and data represent mean±standard deviation of duplicate determinations.

[3] = tested on: Du145 prostate cancer cells; assay: Combination with anticancer drugs, MTT assay; assay type: cell-based; conditions: 10 μM, 48 hours
Description: The percentage of viable cells relative to control was determined using a MTT (3-(4,5-dimethylthiazolyl-2)-2,5-diphenyltetrazolium bromide) assay which is commercially available (Sigma). […] Similar results were obtained for PPC1 (FIG. 31b) and PC3 (FIG. 31c) prostate cancer cells treated with VP16, DOX, or TAXOL, and for H460 (FIG. 31d) lung cancer cells treated with VP16 or DOX.

HeLa cells = assay: Transfected HeLa cells, apoptosis by Annexin V; assay type: cell-based; conditions: 5 μM, 20 hours
Description: In addition to transfecting the cells with full-length XIAP, analogous assays were performed with HeLa cells transfected with plasmids over-expressing various XIAP mutants. […] The mutant was produced by site-directed mutagenesis to modify positions 148, 219, 223, 314 and 323 to contain alanine. HeLa cells were also transiently transfected with plasmids encoding Bcl-XL, an anti-apoptotic protein that operates upstream of caspases to suppress Cytochrome C release from mitochondria. HeLa cells (2.5×10^5) were seeded onto six well plates in 2 mL DMEM H21 with 5% FBS. After 24 hrs, cells were transfected (Gene Porter) with plasmids. […] Both floating and adherent cells were then recovered from cultures, washed, and apoptosis was determined by Annexin V staining using flow cytometry.
Bcl-XL over-expression did afford resistance to traditional anticancer drugs such as etoposide and CrmA (a caspase-8 inhibitor), and protected cells from apoptosis induced by TRAIL, confirming that these anti-apoptotic proteins were functional in these experiments.

[4] = tested on: Jurkat and HeLa tumor cell lines; assay: Tumor cell lines Jurkat and HeLa, 2 days, annexin-V; assay type: cell-based; set-up: dose or concentration left out as unconfirmed
Description: After 2 days, cell viability was assessed by annexin-V staining.

[5] = tested on: PPC1 prostate cancer cells; assay: PPC1 prostate cancer xenograft in Balb/C nu-/nu- mice; assay type: in vivo; conditions: 30 mg/kg i.p. for 2 or 3 days
From the text: Similar data was obtained using TPI 1396-22 (see FIGS. 33a and 33b). […] In FIG. 33b, the mice were sacrificed at day 19 and the tumors excised and weighed.

[6] = tested on: caspase-3 and caspase-7 activity in Jurkat cells; assay: Caspase-3 and caspase-7 activity in whole Jurkat cells, cell permeable substrate; assay type: cell-based; conditions: 8 μM, 20 hours
XIAP = XIAP (Homo sapiens, UniProt P98170); assay: SMAC binding/competition assay: biotinylated SMAC 7-mer on NeutrAvidin plates, GST-XIAP detected by anti-GST; conditions: in words
Sequence of XIAP (P98170 whole entry): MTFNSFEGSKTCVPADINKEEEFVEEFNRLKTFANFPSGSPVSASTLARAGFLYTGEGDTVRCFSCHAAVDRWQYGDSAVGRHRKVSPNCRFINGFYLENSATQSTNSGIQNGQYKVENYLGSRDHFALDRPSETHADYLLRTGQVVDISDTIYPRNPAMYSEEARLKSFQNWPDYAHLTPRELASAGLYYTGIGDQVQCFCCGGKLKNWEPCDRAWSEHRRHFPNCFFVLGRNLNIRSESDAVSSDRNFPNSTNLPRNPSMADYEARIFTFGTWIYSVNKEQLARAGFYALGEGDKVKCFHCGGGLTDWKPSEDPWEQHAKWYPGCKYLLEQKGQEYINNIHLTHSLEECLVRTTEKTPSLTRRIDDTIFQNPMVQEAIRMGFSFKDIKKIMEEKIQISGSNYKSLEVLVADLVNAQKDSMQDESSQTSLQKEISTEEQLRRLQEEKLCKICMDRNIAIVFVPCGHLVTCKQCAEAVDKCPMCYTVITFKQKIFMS
Description: Peptide compounds containing unnatural amino acids in the 792 series, 792-33 and 792-35 (see FIG. 12 and 20 and Example XI), and an active compound in the TPI 1332 series, TPI 1332-69, were tested for binding activity in the SMAC binding assay as described above in Example X. For this assay, biotinylated SMAC 7-mer peptide (50 ng) was bound to 96 well plates coated with NeutrAvidin (Pierce, Rockford, Ill.) at 1 mg/ml in 100 μl per well of 50 mM HEPES pH 7.4, 100 mM NaCl 1 mM EDTA, 10% sucrose, 0.1% CHAPS, 10 mM DTT.

[7] = tested on: PPC1, ALVA31, DU145 and HeLa cells; assay: Combination with TRAIL; assay type: cell-based; conditions: 1 µM
Description: Similar tests of the effects of polyphenyl urea compounds on apoptosis induction by the biological agent TRAIL, an apoptosis inducing member of the Tumor Necrosis Factor (TNF) family were also performed.

[8] = tested on: normal bone marrow mononuclear cells; assay: Normal bone marrow mononuclear cells versus Jurkat, Annexin V, 20 hours; assay type: cell-based; conditions: 5 μM
Description: After incubation, cells were washed, stained with FITC-conjugated Annexin V antibody and propidium iodide, and fluorescence measured by flow cytometry as described above.

XIAP-inhibited caspase-3 = biological target: T1, XIAP-inhibited caspase-3 (Homo sapiens, UniProt P98170); assay: IAP derepression assay: Ac-DEVD-AFC hydrolysis by caspase-3 in the presence of GST-XIAP; assay type: biochemical; conditions: in words
T1 construct: in a caspase derepression assay using full length XIAP; made in house; host or cells: bacteria
T1 sequence (P98170 whole entry): as above
Description: The ratio of Vmax for hydrolysis of Ac-DEVD-AFC in the presence and absence of the candidate mixture was calculated and used to identify those that contain an agent that derepresses an IAP-inhibited caspase.
Each mixture was aliquoted in a 25 microliter volume and in duplicate to a well of a 96 well microtiter plate. […] Fluorescence of liberated AFC was immediately detected from each well for 30 minutes at 30 second intervals. The Vmax for hydrolysis of AC-DEVD-AFC from each well was measured using the softmax software package.

[9] = tested on: U937 leukemia cells over-expressing XIAP; assay: U937-Neo versus U937-XIAP leukemia cells, Annexin V; assay type: cell-based; conditions: 5 or 8 μM, 20 hours
Description: After incubation, cells were washed, stained with FITC-conjugated Annexin V antibody and propidium iodide, and fluorescence measured by flow cytometry as described in Example XI.
Equal amounts of protein were subjected to SDS-PAGE (4-20% gradient gels from ISC BioExpress, Kaysville, Utah), followed by transfer to nitrocellulose membranes. […] Secondary antibodies consisted of horseradish peroxidase (HRP)-conjugated:goat anti-mouse IgG (Bio-Rad, Hercules, Calif.). Detection was performed by the enhanced chemiluminescence (ECL) method. […] Lysates were prepared from the cells, normalized for total protein content and analyzed by SDS-PAGE immunoblotting using antibodies specific for XIAP, caspase-3, and β-actin.

[10] = tested on: PC-3 and LNCaP prostate cancer cell lines; assay: Clonogenic survival (colony formation) assay; assay type: cell-based; conditions: Homo sapiens
Description: In addition to short-term cytotoxicity assays selected polyphenylurea compounds were tested for effects on clonogenic survival of cancer cells in colony formation assays, which can be considered a more stringent test of anticancer activity.

Sequence of full length XIAP (P98170 whole entry): as above

COc1ccc(CCN2CCC[C@@H]2CN(C(=O)Nc2ccccc2)[C@@H](CNC(=O)Nc2ccccc2)CC2CCCCC2)cc1 [TPI 1396-34]
EC50 (full length XIAP): 77.1 µM
tumor size / growth, HCT116 xenograft [1]: tumor size was reduced; also recorded: significantly slowed the rate of growth
CTL-mediated lysis of tumor targets [2]: sensitizes tumor targets to CTL-mediated lysis
effect on dose-dependent cytotoxicity of VP16, DOX and TAXOL [3]: significantly increased dose-dependent cytotoxicity
apoptosis in HeLa cells over-expressing Bcl-XL (HeLa cells): not blocked
apoptosis in HeLa cells over-expressing full-length XIAP (HeLa cells): protected
apoptosis in HeLa cells transfected with a control vector (HeLa cells): induced apoptosis
increase of killing above background [4]: > 4 fold
tumor size / growth, PPC1 xenograft [5]: reduced tumor size; also recorded: significantly slowed the rate of growth
caspase activation in whole cells [6]: induced caspase activation
competition with XIAP binding to the SMAC peptide (SMAC competition assay) (XIAP): does not compete
sensitization to TRAIL-induced apoptosis [7]: sensitized
toxicity to normal bone marrow cells [8]: little toxicity
activity in the caspase derepression assay using full length XIAP (XIAP-inhibited caspase-3): active XIAP inhibitors
effect of over-expression of XIAP on apoptosis induction [9]: resistant
activity at 10 µM ([10]; 10 μM, read-out: colony formation, % of control): < 5%
EC50 ([10]; 3 days culture, colonies counted one week later, read-out: average EC50 dose, clonogenic survival): 3 µM
